The source of these data is patent US20100311714A1, “1H-IMIDAZO[4,5-c]QUINOLINONE COMPOUNDS” (priority 2009, published 2010).

Data set [1] can be described thus: Parallel Artificial Membrane Permeability Assay (PAMPA) at pH 6.8. In kind it is physicochemical. A digest of the protocol: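 PAMPA permeability measured at pH 6.8 following the Wohnsland and Faller method; value reported as log Pe.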
In the next data set the target is T1, PI3K beta (Homo sapiens, UniProt P42338).
T1 construct: for the full-length p110-b subunit are generated and fused by overlapping PCR; His tag (C); made in house; host or cells: baculovirus BV949; Tn5 (Trichoplusia ni) or TiniPro insect cells
T1 sequence (P42338 with tags, fused parts or gaps limits assumed): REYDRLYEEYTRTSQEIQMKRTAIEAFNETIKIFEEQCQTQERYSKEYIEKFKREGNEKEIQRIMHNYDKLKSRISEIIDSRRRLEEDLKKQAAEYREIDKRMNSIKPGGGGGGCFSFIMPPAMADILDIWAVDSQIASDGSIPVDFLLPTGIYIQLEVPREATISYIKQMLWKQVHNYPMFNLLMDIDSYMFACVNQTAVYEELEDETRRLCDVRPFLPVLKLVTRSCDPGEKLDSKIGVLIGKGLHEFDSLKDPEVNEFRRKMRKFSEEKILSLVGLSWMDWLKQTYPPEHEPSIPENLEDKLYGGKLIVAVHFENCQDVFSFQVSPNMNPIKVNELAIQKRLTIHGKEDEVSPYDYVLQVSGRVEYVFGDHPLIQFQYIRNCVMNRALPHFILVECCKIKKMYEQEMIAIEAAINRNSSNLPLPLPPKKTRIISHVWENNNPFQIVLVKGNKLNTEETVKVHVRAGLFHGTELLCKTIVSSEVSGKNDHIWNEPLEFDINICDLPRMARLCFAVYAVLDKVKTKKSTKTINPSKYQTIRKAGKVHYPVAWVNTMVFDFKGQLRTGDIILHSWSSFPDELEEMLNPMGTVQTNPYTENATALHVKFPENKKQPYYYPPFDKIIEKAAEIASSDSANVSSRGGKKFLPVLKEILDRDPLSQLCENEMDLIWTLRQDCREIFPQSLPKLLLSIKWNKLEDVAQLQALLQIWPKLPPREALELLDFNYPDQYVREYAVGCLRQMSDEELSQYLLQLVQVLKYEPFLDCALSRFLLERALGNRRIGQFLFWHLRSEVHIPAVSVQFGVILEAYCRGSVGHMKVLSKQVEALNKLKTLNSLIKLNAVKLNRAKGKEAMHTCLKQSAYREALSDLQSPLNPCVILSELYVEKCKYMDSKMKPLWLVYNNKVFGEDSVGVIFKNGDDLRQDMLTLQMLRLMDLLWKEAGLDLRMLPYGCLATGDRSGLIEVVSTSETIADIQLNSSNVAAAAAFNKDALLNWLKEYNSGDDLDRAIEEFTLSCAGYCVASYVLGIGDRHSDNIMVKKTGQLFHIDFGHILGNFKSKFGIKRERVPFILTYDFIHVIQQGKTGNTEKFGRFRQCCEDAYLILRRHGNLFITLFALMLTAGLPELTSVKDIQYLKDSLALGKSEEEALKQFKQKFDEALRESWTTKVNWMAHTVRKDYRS
Kind of data set: PI3K beta kinase assay (Kinase-Glo luminescence). Particulars: read-out: EPK_PI3Kbeta/IC50. The format is biochemical. In a few lines: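 PI3Kβ construct BV949 (p85 iSH2–p110β full-length, C-His), 25 nM, reacted with 1 μM ATP and 10 μg/mL phosphatidylinositol in Tris pH 7.5, MgCl2, NaCl, CHAPS, DTT buffer, 60 min at room temperature. Remaining ATP by Kinase-Glo luminescence; IC50 from 4-parameter logistic fit of 8 concentrations.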
(Kinase-Glo reads ATP consumption through a luciferase reaction.)

In the case of `COCCN(C)c1ccc(-n2c(=O)n(C)c3cnc4ccc(-c5cnc(N)c(C(F)(F)F)c5)cc4c32)c(C)n1` [Example 15.1, 8-(6-Amino-5-trifluoromethyl-pyridin-3-yl)-1-{6-[(2-methoxy-ethyl)-methyl-amino]-2-methyl-pyridin-3-yl}-3-methyl-1,3-dihydro-imidazo[4,5-c]quinolin-2-one], in data set [1], the “HT-Perm logPe pH6.8” value is recorded as −4. The IC50 on PI3K beta is 15 nM.

`CNc1ncc(-c2ccc3ncc4c(c3c2)n(-c2ccc(N(C)CCOC)nc2C)c(=O)n4C)cn1` [Example 15.2, 1-{6-[(2-Methoxy-ethyl)-methyl-amino]-2-methyl-pyridin-3-yl}-3-methyl-8-(2-methylamino-pyrimidin-5-yl)-1,3-dihydro-imidazo[4,5-c]quinolin-2-one]: the “HT-Perm logPe pH6.8” value in data set [1] is listed as −3.9. Also, the IC50 on PI3K beta came to 541 nM.

As to `CCOc1ccc(-c2ccc3ncc4c(c3c2)n(-c2ccc(N(C)CCOC)nc2C)c(=O)n4C)cn1` [Example 15.3, 8-(6-Ethoxy-pyridin-3-yl)-1-{6-[(2-methoxy-ethyl)-methyl-amino]-2-methyl-pyridin-3-yl}-3-methyl-1,3-dihydro-imidazo[4,5-c]quinolin-2-one], the “HT-Perm logPe pH6.8” value in data set [1] is on record as −3.8. In addition, on PI3K beta, the IC50 amounted to 793 nM.

Consider `CNc1ccc(-c2ccc3ncc4c(c3c2)n(-c2ccc(N(C)CCOC)nc2C)c(=O)n4C)cn1` [Example 15.4, 1-{6-[(2-Methoxy-ethyl)-methyl-amino]-2-methyl-pyridin-3-yl}-3-methyl-8-(6-methylamino-pyridin-3-yl)-1,3-dihydro-imidazo[4,5-c]quinolin-2-one], for which, in data set [1], the “HT-Perm logPe pH6.8” value was −3.7. Further, at PI3K beta, the IC50 came out at 407 nM.

Regarding `COCCN(C)c1ccc(-n2c(=O)n(C)c3cnc4ccc(-c5cnc(N(C)C)nc5)cc4c32)c(C)n1` [Example 15.5, 8-(2-Dimethylamino-pyrimidin-5-yl)-1-{6-[(2-methoxy-ethyl)-methyl-amino]-2-methyl-pyridin-3-yl}-3-methyl-1,3-dihydro-imidazo[4,5-c]quinolin-2-one], the “HT-Perm logPe pH6.8” value in data set [1] is −3.7. The IC50 on PI3K beta turned out to be 448 nM.

Take `CCNc1cc(-c2ccc3ncc4c(c3c2)n(-c2ccc(N(C)CCOC)nc2C)c(=O)n4C)cnc1C` [Example 15.6, 8-(5-Ethylamino-6-methyl-pyridin-3-yl)-1-{6-[(2-methoxy-ethyl)-methyl-amino]-2-methyl-pyridin-3-yl}-3-methyl-1,3-dihydro-imidazo[4,5-c]quinolin-2-one]: the “HT-Perm logPe pH6.8” value in data set [1] is reported as −3.6. In addition, on PI3K beta, the IC50 is 28 nM.

`COCCN(C)c1ccc(-n2c(=O)n(C)c3cnc4ccc(-c5cnc6c(ccn6C)c5)cc4c32)c(C)n1` [Example 15.7, 1-{6-[(2-Methoxy-ethyl)-methyl-amino]-2-methyl-pyridin-3-yl}-3-methyl-8-(1-methyl-1H-pyrrolo[2,3-b]pyridin-5-yl)-1,3-dihydro-imidazo[4,5-c]quinolin-2-one]: in data set [1], the “HT-Perm logPe pH6.8” value is recorded as −3.9. The IC50 at PI3K beta was 279 nM.

On to `COCCN(C)c1ccc(-n2c(=O)n(C)c3cnc4ccc(-c5cncc(N)c5)cc4c32)c(C)n1` [Example 15.8, 8-(5-Amino-pyridin-3-yl)-1-{6-[(2-methoxy-ethyl)-methyl-amino]-2-methyl-pyridin-3-yl}-3-methyl-1,3-dihydro-imidazo[4,5-c]quinolin-2-one], for which, in data set [1], the “HT-Perm logPe pH6.8” value was −5.1. Besides, on PI3K beta, the IC50 was determined as 98 nM.

As to `Cc1cc(F)ncc1-n1c(=O)n(C)c2cnc3ccc(-c4cnc(N)c(C(F)(F)F)c4)cc3c21` [Example 16.1, 8-(6-Amino-5-trifluoromethyl-pyridin-3-yl)-1-(6-fluoro-4-methyl-pyridin-3-yl)-3-methyl-1,3-dihydro-imidazo[4,5-c]quinolin-2-one], in data set [1], the “HT-Perm logPe pH6.8” value is −3.7. Further, the IC50 on PI3K beta came out at 47 nM.

As to `CCNc1cc(-c2ccc3ncc4c(c3c2)n(-c2cnc(F)cc2C)c(=O)n4C)cnc1C` [Example 16.2, 8-(5-Ethylamino-6-methyl-pyridin-3-yl)-1-(6-fluoro-4-methyl-pyridin-3-yl)-3-methyl-1,3-dihydro-imidazo[4,5-c]quinolin-2-one], the “HT-Perm logPe pH6.8” value in data set [1] is −3.8. The IC50 on PI3K beta was determined as 150 nM.

Take `CNc1ncc(-c2ccc3ncc4c(c3c2)n(-c2cnc(F)cc2C)c(=O)n4C)cn1` [Example 16.3, 1-(6-Fluoro-4-methyl-pyridin-3-yl)-3-methyl-8-(2-methylamino-pyrimidin-5-yl)-1,3-dihydro-imidazo[4,5-c]quinolin-2-one]: in data set [1], the “HT-Perm logPe pH6.8” value was −4.4. Moreover, the IC50 on PI3K beta came out at 1180 nM.

`CNc1ccc(-c2ccc3ncc4c(c3c2)n(-c2cnc(F)cc2C)c(=O)n4C)cn1` [Example 16.4, 1-(6-Fluoro-4-methyl-pyridin-3-yl)-3-methyl-8-(6-methylamino-pyridin-3-yl)-1,3-dihydro-imidazo[4,5-c]quinolin-2-one]: the “HT-Perm logPe pH6.8” value in data set [1] is −4.2. Moreover, at PI3K beta, the IC50 was 1330 nM.

On to `Cc1cc(F)ncc1-n1c(=O)n(C)c2cnc3ccc(-c4cnc5c(ccn5C)c4)cc3c21` [Example 16.5, 1-(6-Fluoro-4-methyl-pyridin-3-yl)-3-methyl-8-(1-methyl-1H-pyrrolo[2,3-b]pyridin-5-yl)-1,3-dihydro-imidazo[4,5-c]quinolin-2-one], for which, in data set [1], the “HT-Perm logPe pH6.8” value is on record as −3.7. The IC50 on PI3K beta was 261 nM.

On to `CCOc1ccc(-c2ccc3ncc4c(c3c2)n(-c2cncc(C)c2)c(=O)n4C)cn1` [Example 17.1, 8-(6-Ethoxy-pyridin-3-yl)-3-methyl-1-(5-methyl-pyridin-3-yl)-1,3-dihydro-imidazo[4,5-c]quinolin-2-one], for which, in data set [1], the “HT-Perm logPe pH6.8” value was −4.5. Besides, on PI3K beta, the IC50 was 3950 nM.

Consider `CCNc1cc(-c2ccc3ncc4c(c3c2)n(-c2ccc(OC)nc2Cl)c(=O)n4C)cnc1C` [Example 18.1, 1-(2-Chloro-6-methoxy-pyridin-3-yl)-8-(5-ethylamino-6-methyl-pyridin-3-yl)-3-methyl-1,3-dihydro-imidazo[4,5-c]quinolin-2-one], for which the “HT-Perm logPe pH6.8” value in data set [1] is on record as −3.6. Besides, the IC50 on PI3K beta amounted to 41 nM.

For the compound `COc1ccc(-n2c(=O)n(C)c3cnc4ccc(-c5cnc(N(C)C)nc5)cc4c32)c(Cl)n1` [Example 18.3, 1-(2-Chloro-6-methoxy-pyridin-3-yl)-8-(2-dimethylamino-pyrimidin-5-yl)-3-methyl-1,3-dihydro-imidazo[4,5-c]quinolin-2-one], the “HT-Perm logPe pH6.8” value in data set [1] is listed as −3.5. Further, the IC50 on PI3K beta amounted to 45 nM.

Regarding `CNc1ncc(-c2ccc3ncc4c(c3c2)n(-c2ccc(N(C)C)nc2C)c(=O)n4C)cn1` [Example 19.1, 1-(6-Dimethylamino-2-methyl-pyridin-3-yl)-3-methyl-8-(2-methylamino-pyrimidin-5-yl)-1,3-dihydro-imidazo[4,5-c]quinolin-2-one], the “HT-Perm logPe pH6.8” value in data set [1] is listed as −3.9. Moreover, the IC50 on PI3K beta came to 99 nM.

With `CNc1cc(-c2ccc3ncc4c(c3c2)n(-c2ccc(N(C)C)nc2C)c(=O)n4C)cnc1C` [Example 19.2, 1-(6-Dimethylamino-2-methyl-pyridin-3-yl)-3-methyl-8-(6-methyl-5-methylamino-pyridin-3-yl)-1,3-dihydro-imidazo[4,5-c]quinolin-2-one], the “HT-Perm logPe pH6.8” value in data set [1] is listed as −4.1. Also, the IC50 at PI3K beta came to 68 nM.
